How the values were obtained:
Assay in all cases: relative viability (nuclei count vs DMSO), 5 days (fraction); higher = more cells survive
NCI-H1666 = tested on: NCI-H1666
In short: (§1)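 Lung cancer cell lines in 1536-well plates were dosed by pin tool the day after seeding, either with one drug alone or with a fixed anchor-drug dose plus five library-drug doses (not always all listed) in √10 steps. After 5 days, cells were fixed and their nuclei stained in one step (final 0.05% Triton X-100, 1% formaldehyde, 1 ug/ml Hoechst), then counted on 4× images. Relative viability is the nuclei count in treated wells divided by that in vehicle wells. Values are medians of duplicate plates.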

UMC-11 = tested on: UMC-11
In short: as §1

LU99A = tested on: LU99A
In short: as §1

COR-L 105 = tested on: COR-L 105
In short: as §1

LC-2-ad = tested on: LC-2-ad
In short: as §1

NCI-H1792 = tested on: NCI-H1792
In short: as §1

NCI-H358 = tested on: NCI-H358
In short: as §1

NCI-H1915 = tested on: NCI-H1915
In short: as §1

LXF-289 = tested on: LXF-289
In short: as §1

HCC-78 = tested on: HCC-78
In short: as §1

EPLC-272H = tested on: EPLC-272H
In short: as §1

NCI-H1944 = tested on: NCI-H1944
In short: as §1

NCI-H2170 = tested on: NCI-H2170
In short: as §1

NCI-H2009 = tested on: NCI-H2009
In short: as §1

NCI-H2085 = tested on: NCI-H2085
In short: as §1

SK-LU-1 = tested on: SK-LU-1
In short: as §1

NCI-H460 = tested on: NCI-H460
In short: as §1

SW 900 = tested on: SW 900
In short: as §1

HCC-366 = tested on: HCC-366
In short: as §1

NCI-H1793 = tested on: NCI-H1793
In short: as §1

A-427 = tested on: A-427
In short: as §1

HOP-62 = tested on: HOP-62
In short: as §1

Work on `O=c1cc(-c2cccc3c2Sc2ccccc2S3)oc(N2CCOCC2)c1` + Nc1ncn([C@H]2C[C@H](O)[C@@H](CO)O2)c(=O)n1 [Decitabine] (partner 2 µM) yielded a relative viability (NCI-H1666; first compound 0.08 µM) of 0.664, a relative viability (NCI-H1666; first compound 0.253 µM) of 0.799 and a relative viability (NCI-H1666; first compound 0.8 µM) of 0.706. It also gave a relative viability (NCI-H1666; first compound 2.53 µM) of 0.678, a relative viability (NCI-H1666; first compound 8 µM) of 0.762 and a relative viability (UMC-11; first compound 0.08 µM) of 0.599. It also gave a relative viability (UMC-11; first compound 0.253 µM) of 0.567, a relative viability (UMC-11; first compound 0.8 µM) of 0.585 and a relative viability (UMC-11; first compound 2.53 µM) of 0.613. The relative viability (UMC-11; first compound 8 µM) was 0.712, the relative viability (LU99A; first compound 0.08 µM) was 0.897 and the relative viability (LU99A; first compound 0.253 µM) was 0.996. It also gave a relative viability (LU99A; first compound 0.8 µM) of 1.04, a relative viability (LU99A; first compound 2.53 µM) of 0.866 and a relative viability (LU99A; first compound 8 µM) of 1.18. It also gave a relative viability (COR-L 105; first compound 0.08 µM) of 0.603, a relative viability (COR-L 105; first compound 0.253 µM) of 0.568 and a relative viability (COR-L 105; first compound 0.8 µM) of 0.583. The relative viability (COR-L 105; first compound 2.53 µM) was 0.612, the relative viability (COR-L 105; first compound 8 µM) was 0.74 and the relative viability (LC-2-ad; first compound 0.08 µM) was 0.786. For the same compound, the relative viability (LC-2-ad; first compound 0.253 µM) was 0.928, the relative viability (LC-2-ad; first compound 0.8 µM) was 0.905 and the relative viability (LC-2-ad; first compound 2.53 µM) was 0.761. The relative viability (LC-2-ad; first compound 8 µM) was 0.793, the relative viability (NCI-H1792; first compound 0.08 µM) was 0.531 and the relative viability (NCI-H1792; first compound 0.253 µM) was 0.828. The relative viability (NCI-H1792; first compound 0.8 µM) was 0.45, the relative viability (NCI-H1792; first compound 2.53 µM) was 0.723 and the relative viability (NCI-H1792; first compound 8 µM) was 0.575. For the same compound, the relative viability (NCI-H358; first compound 0.08 µM) was 0.199, the relative viability (NCI-H358; first compound 0.253 µM) was 0.205 and the relative viability (NCI-H358; first compound 0.8 µM) was 0.2. For the same compound, the relative viability (NCI-H358; first compound 2.53 µM) was 0.25, the relative viability (NCI-H358; first compound 8 µM) was 0.214 and the relative viability (NCI-H1915; first compound 0.08 µM) was 0.259. For the same compound, the relative viability (NCI-H1915; first compound 0.253 µM) was 0.277, the relative viability (NCI-H1915; first compound 0.8 µM) was 0.271 and the relative viability (NCI-H1915; first compound 2.53 µM) was 0.259. It also gave a relative viability (NCI-H1915; first compound 8 µM) of 0.289, a relative viability (LXF-289; first compound 0.08 µM) of 0.389 and a relative viability (LXF-289; first compound 0.253 µM) of 0.465. For the same compound, the relative viability (LXF-289; first compound 0.8 µM) was 0.42, the relative viability (LXF-289; first compound 2.53 µM) was 0.439 and the relative viability (LXF-289; first compound 8 µM) was 0.416. For the same compound, the relative viability (HCC-78; first compound 0.08 µM) was 0.653, the relative viability (HCC-78; first compound 0.253 µM) was 0.906 and the relative viability (HCC-78; first compound 0.8 µM) was 0.647. It also gave a relative viability (HCC-78; first compound 2.53 µM) of 0.664, a relative viability (HCC-78; first compound 8 µM) of 0.74 and a relative viability (EPLC-272H; first compound 0.08 µM) of 0.341. The relative viability (EPLC-272H; first compound 0.253 µM) was 0.409, the relative viability (EPLC-272H; first compound 0.8 µM) was 0.363 and the relative viability (EPLC-272H; first compound 2.53 µM) was 0.343. For the same compound, the relative viability (EPLC-272H; first compound 8 µM) was 0.366, the relative viability (NCI-H1944; first compound 0.08 µM) was 0.406 and the relative viability (NCI-H1944; first compound 0.253 µM) was 0.448. The relative viability (NCI-H1944; first compound 0.8 µM) was 0.457, the relative viability (NCI-H1944; first compound 2.53 µM) was 0.432 and the relative viability (NCI-H1944; first compound 8 µM) was 0.468. The relative viability (NCI-H2170; first compound 0.08 µM) was 0.439, the relative viability (NCI-H2170; first compound 0.253 µM) was 0.524 and the relative viability (NCI-H2170; first compound 0.8 µM) was 0.48. The relative viability (NCI-H2170; first compound 2.53 µM) was 0.424, the relative viability (NCI-H2170; first compound 8 µM) was 0.465 and the relative viability (NCI-H2009; first compound 0.08 µM) was 0.375. For the same compound, the relative viability (NCI-H2009; first compound 0.253 µM) was 0.358, the relative viability (NCI-H2009; first compound 0.8 µM) was 0.38 and the relative viability (NCI-H2009; first compound 2.53 µM) was 0.348. For the same compound, the relative viability (NCI-H2009; first compound 8 µM) was 0.343, the relative viability (NCI-H2085; first compound 0.08 µM) was 0.532 and the relative viability (NCI-H2085; first compound 0.253 µM) was 0.578. For the same compound, the relative viability (NCI-H2085; first compound 0.8 µM) was 0.52, the relative viability (NCI-H2085; first compound 2.53 µM) was 0.519 and the relative viability (NCI-H2085; first compound 8 µM) was 0.537. For the same compound, the relative viability (SK-LU-1; first compound 0.08 µM) was 0.678, the relative viability (SK-LU-1; first compound 0.253 µM) was 0.813 and the relative viability (SK-LU-1; first compound 0.8 µM) was 0.755. It also gave a relative viability (SK-LU-1; first compound 2.53 µM) of 0.643, a relative viability (SK-LU-1; first compound 8 µM) of 0.648 and a relative viability (NCI-H460; first compound 0.08 µM) of 0.476. For the same compound, the relative viability (NCI-H460; first compound 0.253 µM) was 0.659, the relative viability (NCI-H460; first compound 0.8 µM) was 0.462 and the relative viability (NCI-H460; first compound 2.53 µM) was 0.468. It also gave a relative viability (NCI-H460; first compound 8 µM) of 0.669, a relative viability (SW 900; first compound 0.253 µM) of 0.453 and a relative viability (SW 900; first compound 0.8 µM) of 0.414. For the same compound, the relative viability (SW 900; first compound 2.53 µM) was 0.428, the relative viability (SW 900; first compound 8 µM) was 0.433 and the relative viability (HCC-366; first compound 0.08 µM) was 0.324. For the same compound, the relative viability (HCC-366; first compound 0.253 µM) was 0.486, the relative viability (HCC-366; first compound 0.8 µM) was 0.363 and the relative viability (HCC-366; first compound 2.53 µM) was 0.273. For the same compound, the relative viability (HCC-366; first compound 8 µM) was 0.33, the relative viability (NCI-H1793; first compound 0.08 µM) was 0.536 and the relative viability (NCI-H1793; first compound 0.253 µM) was 0.614. It also gave a relative viability (NCI-H1793; first compound 0.8 µM) of 0.478, a relative viability (NCI-H1793; first compound 2.53 µM) of 0.487 and a relative viability (NCI-H1793; first compound 8 µM) of 0.476. The relative viability (A-427; first compound 0.08 µM) was 0.448, the relative viability (A-427; first compound 0.253 µM) was 0.6 and the relative viability (A-427; first compound 0.8 µM) was 0.547. For the same compound, the relative viability (A-427; first compound 2.53 µM) was 0.573, the relative viability (A-427; first compound 8 µM) was 0.548 and the relative viability (HOP-62; first compound 0.08 µM) was 0.206. It also gave a relative viability (HOP-62; first compound 0.253 µM) of 0.221, a relative viability (HOP-62; first compound 0.8 µM) of 0.187 and a relative viability (HOP-62; first compound 2.53 µM) of 0.228. For the same compound, the relative viability (HOP-62; first compound 8 µM) was 0.234.
